Results taken from the supplement of paper PMC10307832.

Tests used:
Experiment in all cases: relative viability (nuclei count vs DMSO), 5 days (fraction); higher = more cells survive
EHT 1864 + Decitabine = compound: C1COCCN1CC2=CC(=O)C(=CO2)OCCCCCSC3=C4C=CC(=CC4=NC=C3)C(F)(F)F [EHT 1864] + Nc1ncn([C@H]2C[C@H](O)[C@@H](CO)O2)c(=O)n1 [Decitabine] (partner 2 µM)
Method in brief: (§1)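 Lung cancer cell lines in 1536-well plates were dosed by pin tool the day after seeding, either with one drug alone or with a fixed anchor-drug dose plus five library-drug doses (not always all listed) in √10 steps. After 5 days, cells were fixed and their nuclei stained in one step (final 0.05% Triton X-100, 1% formaldehyde, 1 ug/ml Hoechst), then counted on 4× images. Relative viability is the nuclei count in treated wells divided by that in vehicle wells. Values are medians of duplicate plates.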

EHT 1864 + Crizotinib = compound: C1COCCN1CC2=CC(=O)C(=CO2)OCCCCCSC3=C4C=CC(=CC4=NC=C3)C(F)(F)F [EHT 1864] + C[C@@H](Oc1cc(-c2cnn(C3CCNCC3)c2)cnc1N)c1c(Cl)ccc(F)c1Cl [Crizotinib] (partner 1 µM)
Method in brief: as §1

EHT 1864 + Phenformin = compound: C1COCCN1CC2=CC(=O)C(=CO2)OCCCCCSC3=C4C=CC(=CC4=NC=C3)C(F)(F)F [EHT 1864] + N=C(N)NC(=N)NCCc1ccccc1 [Phenformin] (partner 250 µM)
Method in brief: as §1

EHT 1864 + Navitoclax = compound: C1COCCN1CC2=CC(=O)C(=CO2)OCCCCCSC3=C4C=CC(=CC4=NC=C3)C(F)(F)F [EHT 1864] + CC1(C)CCC(c2ccc(Cl)cc2)=C(CN2CCN(c3ccc(C(=O)NS(=O)(=O)c4ccc(N[C@H](CCN5CCOCC5)CSc5ccccc5)c(S(=O)(=O)C(F)(F)F)c4)cc3)CC2)C1 [Navitoclax] (partner 0.5 µM)
Method in brief: as §1

Cell Line	relative viability (EHT 1864 + Decitabine; first compound 0.04 µM)	relative viability (EHT 1864 + Decitabine; first compound 0.1265 µM)	relative viability (EHT 1864 + Decitabine; first compound 0.4 µM)	relative viability (EHT 1864 + Decitabine; first compound 1.265 µM)	relative viability (EHT 1864 + Decitabine; first compound 4 µM)	relative viability (EHT 1864 + Crizotinib; first compound 0.04 µM)	relative viability (EHT 1864 + Crizotinib; first compound 0.1265 µM)	relative viability (EHT 1864 + Crizotinib; first compound 0.4 µM)	relative viability (EHT 1864 + Crizotinib; first compound 1.265 µM)	relative viability (EHT 1864 + Crizotinib; first compound 4 µM)	relative viability (EHT 1864 + Phenformin; first compound 0.04 µM)	relative viability (EHT 1864 + Phenformin; first compound 0.1265 µM)	relative viability (EHT 1864 + Phenformin; first compound 0.4 µM)	relative viability (EHT 1864 + Phenformin; first compound 1.265 µM)	relative viability (EHT 1864 + Phenformin; first compound 4 µM)	relative viability (EHT 1864 + Navitoclax; first compound 0.04 µM)	relative viability (EHT 1864 + Navitoclax; first compound 0.1265 µM)	relative viability (EHT 1864 + Navitoclax; first compound 0.4 µM)	relative viability (EHT 1864 + Navitoclax; first compound 1.265 µM)	relative viability (EHT 1864 + Navitoclax; first compound 4 µM)
HCC-827	0.332	0.291	0.319	0.399	0.317	0.963	0.759	0.931	0.844	0.921	0.407	0.347	0.396	0.432	0.329	1.1	0.844	0.96	1.02	0.944
HOP-62	0.225		0.202	0.241	0.246	0.944		0.952	0.784	0.996	0.665		0.615	0.654	0.718	0.915		1.02	0.977	1.22
LC-2-ad	0.783	0.733	0.762	0.773	0.755	0.493	0.454	0.432	0.526	0.564	0.574		0.632	0.64	0.696	0.49		0.49	0.382	0.39
LCLC-97TM1	0.271	0.237	0.22	0.235	0.271	0.399		0.42	0.442	0.285	0.424	0.364	0.444	0.415	0.414	0.414		0.342	0.339	0.503
LK-2	0.292	0.312	0.169	0.333	0.265	0.232	0.23	0.225	0.241	0.221	0.539		0.591	0.369	0.373	0.839	0.674	0.847	0.94	0.784
LOU-NH91	0.793	0.754	0.842	0.804	0.754	0.764	0.73	0.741	0.733	0.758	0.783	0.635	0.859	0.738	0.66	0.693	0.652	0.789	0.694	0.567
LU99A	0.843	0.757	0.827	0.903	0.872	0.604	0.489	0.575	0.593	0.537	0.811	0.557	0.821	0.857	0.808	0.689	0.566	0.716	0.818	0.933
LXF-289	0.431	0.351	0.388	0.385	0.361	0.802	0.791	0.752	0.706	0.688	0.517	0.463	0.507	0.549	0.547	0.952	0.837	0.885	0.811	0.939
NCI-H23	0.297	0.29	0.314	0.343	0.393	0.488		0.513	0.496	0.5	0.778	0.477	0.784	0.604	0.775	0.718		0.627	0.784	0.816
NCI-H322M	0.659	0.692	0.698	0.679	0.724	0.927	0.837	0.849	0.995	1.05	0.798	0.739	0.752	0.783	0.824	1.13	1.26	1.13	1.29	1.23
NCI-H441	0.246		0.241	0.234	0.241	0.783	0.591	0.752	0.879	0.723	0.845	0.604	0.717	0.853	0.932	0.542	0.536	0.513	0.611	0.233
NCI-H460		0.405	0.495	0.43	0.255	0.805	0.85	0.769	0.888	0.799	0.508	0.443	0.513	0.518	0.568	1.11	1.16	1.03	1.16	1.02
NCI-H520	0.545	0.496	0.535	0.493	0.445	0.657	0.599	0.642	0.733	0.804	0.517	0.422	0.785	0.669	0.711	0.999	1.07	1.06	1.08	1.06
NCI-H596	0.937	1.05	1.14	1.09	1.24	1.02	1.04	0.931	0.896	0.973	0.75	0.523	0.753	0.571	0.813	1.1	0.892	1.08	0.812	0.888
NCI-H647	0.32	0.288	0.311	0.453	0.404	1	0.922	0.903	0.992	0.911	0.589	0.432	0.561	0.6	0.545	0.981	0.837	1.17	1.12	1.05
NCI-H727	0.98	0.639	0.85	0.811	0.914	0.803	0.713	0.699		0.786	0.551	0.574	0.481	0.461	0.597	0.554	0.507	0.348		0.324
